Measured values published in US7101890B2, “Benzazepine derivatives, drugs containing these and use of the same for producing drugs” (priority 1996, dated 2006).
Read-outs that look alike come from different tables or passages of the source.

What was measured:
[1] = target: acetylcholine esterase (Homo sapiens, UniProt P06276); experiment: Inhibition of acetylcholine esterase, modified method of Ellmann, human serum; type: biochemical; details: ACHE inhibition
[2] = human serum from a pool of 10 test subjects, 37° C., pH 7.8, compounds of general formula (I)

acetylcholine esterase, sequence (P06276 29-602): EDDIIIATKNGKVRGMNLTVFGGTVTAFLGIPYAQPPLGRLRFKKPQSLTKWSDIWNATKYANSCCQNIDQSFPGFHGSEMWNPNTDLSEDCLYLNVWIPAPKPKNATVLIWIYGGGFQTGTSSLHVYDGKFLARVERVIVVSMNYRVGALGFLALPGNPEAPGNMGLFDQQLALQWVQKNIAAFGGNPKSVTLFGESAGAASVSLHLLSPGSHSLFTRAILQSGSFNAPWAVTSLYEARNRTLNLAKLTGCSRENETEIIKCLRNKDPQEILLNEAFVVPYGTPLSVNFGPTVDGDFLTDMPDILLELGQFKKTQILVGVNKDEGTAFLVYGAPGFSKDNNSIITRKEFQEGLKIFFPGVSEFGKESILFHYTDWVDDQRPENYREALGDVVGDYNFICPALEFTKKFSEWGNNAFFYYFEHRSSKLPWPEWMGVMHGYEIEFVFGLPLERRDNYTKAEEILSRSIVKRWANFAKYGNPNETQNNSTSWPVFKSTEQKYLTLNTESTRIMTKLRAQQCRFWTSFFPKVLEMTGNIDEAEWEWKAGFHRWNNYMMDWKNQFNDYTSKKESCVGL

| melting point [°C] | SMILES | IC50 in μMol [1, 2] | further results |
| --- | --- | --- | --- |
| 170 to 173 | O=[N+]([O-])c1ccc(N2CC3CC2CN3Cc2ccccc2)cc1 (stereo not shown) | – | – |
| 107 to 108 | O=[N+]([O-])c1ccccc1N1CC2CC1CN2Cc1ccccc1 (stereo not shown) | – | – |
| 120 to 130 | c1ccc(N2CC3CC2CN3)cc1 (stereo not shown) | – | – |
| 130 to 140 | Cc1ccc(N2CC3CC2CN3)cc1 (stereo not shown) | – | – |
| 120 to 130 | Clc1ccc(N2CC3CC2CN3)cc1 (stereo not shown) | – | – |
| 120 to 130 | Fc1ccc(N2CC3CC2CN3)cc1 (stereo not shown) | – | – |
| 188 to 189 | COc1cc(Br)c2c3c1OC1C[C@@H](O)C=CC31CCN(C)C2=O (mixture of isomers) | – | – |
| – | CCCCCCN1CCC23C=CC(O)CC2Oc2c(OC)cc(Br)c(c23)C1 (racemic) [Substance 49] | insol. | – |
| – | C#CCN1CCC23C=CC(O)CC2Oc2c(OC)cc(Br)c(c23)C1 (racemic) [Substance 50] | insol. | – |
| – | COc1cc(Br)c2c3c1OC1CC(O)C=CC31CCN(CC#N)C2 (racemic) [Substance 52] | insol. | – |
| – | COC(=O)CCC(=O)N1CCC23C=CC(O)CC2Oc2c(OC)cc(Br)c(c23)C1 (racemic) [Substance 61] | insol. | – |
| – | COC(=O)N1CCC23C=CC(O)CC2Oc2c(OC)cc(Br)c(c23)C1 (racemic) [Substance 62] | insol. | – |
| – | COc1ccc2c3c1OC1CC(=NN(C)C)C=CC31CCN(C)C2 (racemic) [Substance 82] | insol. | – |
| – | COc1ccc2c3c1OC1CC(=NNC(N)=O)C=CC31CCN(C)C2 (racemic) [Substance 87] | insol. | – |
| – | COc1ccc2c3c1OC1CC(=NO)C=CC31CCN(C)C2 (single isomer, unassigned) [Substance 77, narwedine Oxime] | insol. | – |
| – | CCCCNC(=S)OC1C=CC23CCN(C)Cc4ccc(OC)c(c42)OC3C1 (single isomer, unassigned; (+)) [Substance 24, (+)-Galanthamin-n-butylthiocarbamate] | – | IC50 ([1]; human serum from a pool of 10 test subjects, 37° C., pH 7.8, compounds of general formula (I), read-out: IC50 in μMol): 85 µM |
| – | COc1ccc2c3c1OC1CC(O)C=CC31CC[N+](C)([O-])C2 (single isomer, unassigned; (-)) [Substance 98, (−)-Galanthamine-N-oxide] | insol. | – |
| – | COc1ccc2c3c1O[C@H]1CC(=NO)C=C[C@@]31CCN(C)C2 [Substance 76, narwedine Oxime] | insol. | – |
| – | COc1ccc2c(c1O)C13C=C[C@@H](O)CC1N(CC3)C2 (stereo partly shown) [Substance 115, 35-4,4a-dihydro-9-methoxy-10-hydroxy (3H,6H) (5,10b) ethanophenanthridine-3-ol] | – | IC50 ([1]; human serum pool, compounds of formula (II), read-out: IC50): > 150 µM |
